Each structure is given as a SMILES string.

The data set is described as follows: in vitro. To be noted: human, hek293t cells.
Take `C=CC(=O)NCc1c(F)cccc1S(=O)(=O)N(C)C` [3-L15, N-{[2-(dimethylsulfamoyl)-6-fluorophenyl]methyl}prop-2-enamide]: the viability at 48 h, 25 µM is 83.2%. In the case of `Cc1[nH]c2ccccc2c1C=C(C#N)C(=O)NCc1ccccc1` [8-D16, N-benzyl-2-cyano-3-(2-methyl-1H-indol-3-yl)prop-2-enamide], the viability at 48 h, 25 µM stood at 96.6%.

Take `CC(=O)N1CCC(NC(=O)C(C)Cl)c2ccc(F)cc2C1` (stereo not drawn) [7-I16, N-(2-acetyl-8-fluoro-2,3,4,5-tetrahydro-1H-2-benzazepin-5-yl)-2-chloropropanamide]: the viability at 48 h, 25 µM amounted to 92.3%.

For the compound `C=CC(=O)N1CCc2nn(C(C)C)c(=O)cc2C1` [3-B22, 6-(prop-2-enoyl)-2-(propan-2-yl)-2H,3H,5H,6H,7H,8H-pyrido[4,3-c]pyridazin-3-one], the viability at 48 h, 25 µM worked out at 87.7%. For `COC1(OC)CCOCC1NC(=O)CCl` (stereo not drawn) [7-D10, 2-chloro-N-(4,4-dimethoxyoxan-3-yl)acetamide] the value was 19.1%; for `CC(Cl)C(=O)NCc1ccco1` (stereo not drawn) [5-B09, 2-chloro-N-[(furan-2-yl)methyl]propanamide], 96.6%; for `O=C(CCl)N1CCCC1c1nc(Cc2ccc(F)cc2)no1` (stereo not drawn) [5-M10, 2-chloro-1-(2-{3-[(4-fluorophenyl)methyl]-1,2,4-oxadiazol-5-yl}pyrrolidin-1-yl)ethan-1-one], 0.55%.

With `O=C(CCl)N1CCSc2c([nH]c3ccccc23)C1` [6-F08, 2-chloro-1-{2H,3H,4H,5H,6H-[1,4]thiazepino[6,7-b]indol-4-yl}ethan-1-one], the viability at 48 h, 25 µM was 1.68%.

Regarding `C=CC(=O)NC[C@@H]1CCCN1c1ccccc1` [3-E03, N-{[(2S)-1-phenylpyrrolidin-2-yl]methyl}prop-2-enamide], the viability at 48 h, 25 µM amounted to 60.1%.

`CC(C)N(Cc1ccc(N(C)C)cc1)C(=O)CCl` [5-E06, 2-chloro-N-{[4-(dimethylamino)phenyl]methyl}-N-(propan-2-yl)acetamide]: the viability at 48 h, 25 µM was 1.94%. For `COc1ccc(C(NC(=O)CCl)c2ccccc2)cc1` (stereo not drawn) [4-J11, 2-chloro-N-[(4-methoxyphenyl)(phenyl)methyl]acetamide] the value was 0.827%; for `CN(C)CCN1C(=O)C=CC1=O` [10-G11, 1-[2-(dimethylamino)ethyl]-2,5-dihydro-1H-pyrrole-2,5-dione], 96.9%. For `O=C(CCl)Cc1ccc(F)cc1F` [10-G17, 1-chloro-3-(2,4-difluorophenyl)propan-2-one] the value was 36.8%; for `C=CC(=O)N1CCc2c(ncn2-c2ccccc2)C1` [3-N09, 1-{1-phenyl-1H,4H,5H,6H,7H-imidazo[4,5-c]pyridin-5-yl}prop-2-en-1-one], 70.1%; for `COCCNC(=O)C(C#N)=Cc1cccc(O)c1` [9-H08, 2-cyano-3-(3-hydroxyphenyl)-N-(2-methoxyethyl)prop-2-enamide], 121%.

For the compound `CC(Cl)C(=O)N1CCC(Cc2ccccc2)CC1` (stereo not drawn) [5-K21, 1-(4-benzylpiperidin-1-yl)-2-chloropropan-1-one], the viability at 48 h, 25 µM was 86.2%.

In the case of `CN1C(=O)c2ccccc2C1CNC(=O)CCl` (stereo not drawn) [7-B10, 2-chloro-N-[(2-methyl-3-oxo-2,3-dihydro-1H-isoindol-1-yl)methyl]acetamide], the viability at 48 h, 25 µM came to 4.11%. In the case of `Cc1ccc(C(=O)CCl)o1` [10-A09, 2-chloro-1-(5-methylfuran-2-yl)ethan-1-one] it was 48.3%; in that of `N#CC(=Cc1ccccc1OCc1ccccc1)C(=O)NC(N)=O` [8-F05, (2-{[2-(benzyloxy)phenyl]methylidene}-2-cyanoacetyl)urea], 84.9%. As to `Cc1nn(C)c(C)c1CN(C(=O)CCl)C1CCCCC1C` (stereo not drawn) [5-A14, 2-chloro-N-(2-methylcyclohexyl)-N-[(1,3,5-trimethyl-1H-pyrazol-4-yl)methyl]acetamide], the viability at 48 h, 25 µM came to 0.467%. For `C=CC(=O)N(C)CC(=O)NCc1c(O)nnc(C)c1C` [2-I20, N-({[(3-hydroxy-5,6-dimethylpyridazin-4-yl)methyl]carbamoyl}methyl)-N-methylprop-2-enamide] the value was 91.6%; for `C=CC(=O)NCC1(OC)CCC(C)CC1` (stereo not drawn) [1-P08, N-[(1-methoxy-4-methylcyclohexyl)methyl]prop-2-enamide], 80.5%. As to `Cc1c(C(=O)N2CCN(C(=O)C(C)Cl)CC2)sc2ccccc12` (stereo not drawn) [7-H09, 2-chloro-1-[4-(3-methyl-1-benzothiophene-2-carbonyl)piperazin-1-yl]propan-1-one], the viability at 48 h, 25 µM turned out to be 88.8%.

Take `C=CC(=O)N1CCCC1` [1-G08, 1-(pyrrolidin-1-yl)prop-2-en-1-one]: the viability at 48 h, 25 µM turned out to be 70.2%.

Regarding `COc1ccc(C=C(C#N)C(=O)Nc2cccc3ccccc23)cc1` [9-E10, 2-cyano-3-(4-methoxyphenyl)-N-(naphthalen-1-yl)prop-2-enamide], the viability at 48 h, 25 µM was determined as 105%. For `CC(Cl)C(=O)Nc1cccc([N+](=O)[O-])c1` (stereo not drawn) [6-E08, 2-chloro-N-(3-nitrophenyl)propanamide] the value was 98.7%. Turning to `C=CC(=O)Nc1c(C)cnn1CC1CC1` [1-M19, N-[1-(cyclopropylmethyl)-4-methyl-1H-pyrazol-5-yl]prop-2-enamide], the viability at 48 h, 25 µM worked out at 94.9%.

Regarding `N#CC(=Cc1csc2ccccc12)C(=O)NCc1ccco1` [9-D16, 3-(1-benzothiophen-3-yl)-2-cyano-N-[(furan-2-yl)methyl]prop-2-enamide], the viability at 48 h, 25 µM turned out to be 108%. For `C=CC(=O)N1CCCC1c1cccc(C)c1` (stereo not drawn) [1-N11, 1-[2-(3-methylphenyl)pyrrolidin-1-yl]prop-2-en-1-one] the value was 110%.

With `Cc1ccc(NC(=O)C(C#N)=Cc2cccs2)c(C)c1` [8-D15, 2-cyano-N-(2,4-dimethylphenyl)-3-(thiophen-2-yl)prop-2-enamide], the viability at 48 h, 25 µM amounted to 101%.

With `C=CC(=O)Nc1ccc(OC)c(COC)c1` [3-B06, N-[4-methoxy-3-(methoxymethyl)phenyl]prop-2-enamide], the viability at 48 h, 25 µM was determined as 89.7%. For `CC(C)NC(=O)C(C#N)=Cc1cccc2ccccc12` [8-P06, 2-cyano-3-(naphthalen-1-yl)-N-(propan-2-yl)prop-2-enamide] the value was 103%; for `C=CC(=O)NCCn1cc(C2CCOC2)cn1` (stereo not drawn) [2-L09, N-{2-[4-(oxolan-3-yl)-1H-pyrazol-1-yl]ethyl}prop-2-enamide], 53.7%; for `CC(Cl)C(=O)Nc1sccc1C(N)=O` (stereo not drawn) [5-C21, 2-(2-chloropropanamido)thiophene-3-carboxamide], 85.4%.

With `CC(NC(=O)CCl)c1nc(Cc2ccccc2)no1` (stereo not drawn) [6-L07, N-[1-(3-benzyl-1,2,4-oxadiazol-5-yl)ethyl]-2-chloroacetamide], the viability at 48 h, 25 µM was determined as 1.28%.

As for `C=CC(=O)NCCS(=O)(=O)c1cccs1` [3-J17, N-[2-(thiophene-2-sulfonyl)ethyl]prop-2-enamide], the viability at 48 h, 25 µM came to 93.4%. On to `C=CC(=O)N1CCCC(n2ccnn2)C1` (stereo not drawn) [1-D09, 1-[3-(1H-1,2,3-triazol-1-yl)piperidin-1-yl]prop-2-en-1-one], for which the viability at 48 h, 25 µM was found to be 93.6%. On to `Cc1cccc(C)c1NC(=O)CN(C)C(=O)CCl` [5-A13, 2-chloro-N-{[(2,6-dimethylphenyl)carbamoyl]methyl}-N-methylacetamide], for which the viability at 48 h, 25 µM is 0.212%. In the case of `N#CC(=Cc1c[nH]c2ccccc12)C(=O)Nc1ccc2c(c1)OCCO2` [9-B07, 2-cyano-N-(2,3-dihydro-1,4-benzodioxin-6-yl)-3-(1H-indol-3-yl)prop-2-enamide] it was 101%. For `CC(Cl)C(=O)N1CCCC(n2ccc(C(F)(F)F)n2)C1` (stereo not drawn) [7-A08, 2-chloro-1-{3-[3-(trifluoromethyl)-1H-pyrazol-1-yl]piperidin-1-yl}propan-1-one] the value was 80.7%.

In the case of `C=C(Cl)CN(C(=O)CCl)C1CCc2ccccc21` (stereo not drawn) [7-B18, 2-chloro-N-(2-chloroprop-2-en-1-yl)-N-(2,3-dihydro-1H-inden-1-yl)acetamide], the viability at 48 h, 25 µM came out at 0.322%. For `COc1ccc(CC2CCN2C(=O)C(C)Cl)cc1` (stereo not drawn) [5-O22, 2-chloro-1-{2-[(4-methoxyphenyl)methyl]azetidin-1-yl}propan-1-one] the value was 88.3%; for `N#CC(=Cc1ccc(-c2ccccc2)cc1)C(=O)NCc1ccccc1` [8-C06, N-benzyl-3-{[1,1'-biphenyl]-4-yl}-2-cyanoprop-2-enamide], 81.4%; for `CSc1ccc(C=C(C#N)C(=O)Nc2ccc(C(=O)O)cc2)cc1` [9-M08, 4-{2-cyano-3-[4-(methylsulfanyl)phenyl]prop-2-enamido}benzoic acid], 118%. In the case of `C=CC(=O)Nc1ccc(CN2CCC(C)CC2)cc1` [1-D21, N-{4-[(4-methylpiperidin-1-yl)methyl]phenyl}prop-2-enamide] it was 157%; in that of `Cc1noc(C)c1COC1CCN(C(=O)C(C)Cl)C1` (stereo not drawn) [7-O14, 2-chloro-1-{3-[(3,5-dimethyl-1,2-oxazol-4-yl)methoxy]pyrrolidin-1-yl}propan-1-one], 90.9%. In the case of `O=C(CCl)NC1CCCc2nc(-c3ccccc3)sc21` (stereo not drawn) [7-B04, 2-chloro-N-(2-phenyl-4,5,6,7-tetrahydro-1,3-benzothiazol-7-yl)acetamide] it was 0.382%; in that of `COc1ccc(CCN2C(=O)C=CC2=O)cc1` [10-A05, 1-[2-(4-methoxyphenyl)ethyl]-2,5-dihydro-1H-pyrrole-2,5-dione], 5.85%. For the compound `N#CC(=Cc1ccc(F)cc1)C(=O)Nc1cccc2ncccc12` [9-C21, 2-cyano-3-(4-fluorophenyl)-N-(quinolin-5-yl)prop-2-enamide], the viability at 48 h, 25 µM is 118%. For `Cc1c(NC(=O)C(C)Cl)c(=O)n(-c2ccccc2)n1C` (stereo not drawn) [6-E06, 2-chloro-N-(1,5-dimethyl-3-oxo-2-phenyl-2,3-dihydro-1H-pyrazol-4-yl)propanamide] the value was 109%; for `O=C(CCl)NCc1cnn(-c2ccccc2)n1` [6-J03, 2-chloro-N-[(2-phenyl-2H-1,2,3-triazol-4-yl)methyl]acetamide], 1.68%.

The values are drawn from publication PMC11995724, “Antibiotic target discovery by integrated phenotypic and activity-based profiling of electrophilic fragments” (Cell chemical biology, 2025).
